Measurements reported in paper PMC8759985 (Computational and Structural Biotechnology Journal, 2021).

Biological target: T1, TRMT2A RRM (Homo sapiens, UniProt Q8IZ69)
T1 sequence (Q8IZ69 69-147): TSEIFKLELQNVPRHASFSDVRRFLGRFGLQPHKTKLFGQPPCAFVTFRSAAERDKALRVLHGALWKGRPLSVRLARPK
Assay: SPR
Format: binding

- Kd: 1300 ± 270 nM
Compound: NCCCNCCCCNCCCN [spermine]
